Several values for one entry are separate records, joined by “and”; a condition that tells them apart may be missing. Identical values can stand only once.

This is an account of results in patent US7973006B2, “Antibacterial agent based on fatty acid esters of hydroxy carboxylic acid acids” (Purac Biochem B.V., priority 2007, dated 2011).

Experiment [1] concerns Escherichia coli (ATCC 8739). Nature of the experiment: Bioscreen growth rate in brain heart infusion broth with lactylate and polylysine. It counts as cell-based.
Experiment [2] relates to Escherichia coli serotype O157:H7 (ATCC 700728). The description is as above. It counts as cell-based. How it is done: (§1) The following cultures were used in a study: Escherichia coli serotype O157:H7 (ATCC 700728), Salmonella typhimurium (ATCC 13311) and Salmonella entiritidis (ATCC 13076). All cultures were transferred daily in screw-capped tubes containing 10 ml brain heart infusion broth. Cultures were incubated at 30° C. without agitation. Brain heart infusion broth was prepared with increasing amounts of lactylate and polylysine. The concentration range for the caprylic (C8) lactylate was as from 0 to 0.45% in 10 0.05% steps, for the capric (C10) lactylate was as from 0 to 0.09% in 10 0.01% steps, for the lauric (C12) lactylate was as from 0 to 0.009% in 10 0.001% steps and for the tetradecanoic (C14) lactylate was as from 0 to 0.009% in 10 0.001% steps. Lactylates were combined with polylysine. The concentration range for the polylysine was as from 0 to 0.0675% in 10 0.0075% steps. […] The pH of the media was adjusted to 6.1-6.2 with 1 N HCl or 1 N NaOH. Media were prepared in 10 ml quantities and sterilized by filtration. 300 μl of each medium was transferred to a panel of a sterile Bioscreen® honeycomb 100 well plate. Well plates were inoculated with 5 μl of a culture that was grown overnight in brain heart infusion broth using a sterile 5 μl repeating dispenser. Growth rates were determined with a Bioscreen® C that kinetically measures the development of turbidity by vertical photometry. The plates were incubated for 16-24 hours at 37° C., the optical density of the cultures was measured every 30 minutes at 420-580 nm using a wide band filter. The Bioscreen® measures at set time intervals the optical density of the cultures. […] The purpose of further data processing is to ascertain whether two […] act independently of each other or whether they stimulate each other in their inhibitory action (synergy) or cancel out each other inhibitory effect (antagonism). When a certain compound has no effect on an organism the specific growth rate of this organism (μ) can be expressed as a function (f) of the growth limiting substrate concentration (s) by for example the Monod equation, which reads: μ=μmax·s/(Ks+s), where μmax represents the maximum specific growth rate, s the standing concentration of the growth limiting substrate in the medium and Ks the substrate concentration where μ=0.5μmax. However, when the presence of an inhibitor P affects cell growth the function f for μ must be modified i.e. μ=f(s,p), where p represents the concentration of inhibitor P. Numerous studies of growth inhibition kinetics of bacteria have shown that many inhibitors behave as non-competitive inhibitors. This implies that only the maximum specific growth rate (μmax) value and not the affinity (Ks) is affected. Therefore the specific growth rate in the presence of inhibitor can be written as: μ=μi·s/(Ks+s), where μi is the maximal specific growth rate in the presence of a inhibitor P. The relationship between μi and μmax and the concentration of the inhibitor P was describes using the Logistic Dose Response equation, which reads: μi/μmax=1/(1+(p/p0.5)^b) (Jungbauer, A. (2001). The logistic dose response function: a robust fitting function for transition phenomena in life sciences. J. Clinical Ligand Assay 24: 270-274). In this equation p represents the concentration of inhibitor P and p0.5 the concentration of P where μi=0.5μmax; μmax is the maximum specific growth rate that is the specific growth rate in the absence of inhibitor P, b is a dimensionless quantity, which determines the relationship between μi and p. Combining the Monod and Logistic Dose Response equation it can be written as: μ=μmax(s/Ks+s)/(1+(p/p0.5)^b). In batch culture where s is usually many times higher than Ks this equation reduces to μ=μmax/(1+(p/p0.5)^b). When comparing different organisms grown under the same conditions, or the same organism grown under different conditions, it is more meaningful to use relative growth rate, rather than absolute growth rates as standards of comparison. […]

For experiment [3], the system named is Salmonella entiritidis (ATCC 13076). The experiment is described as above. It counts as cell-based. How it is done:
as §1

Experiment [4] deals with Salmonella typhimurium (ATCC 13311). The description is as above. Format: cell-based. How it is done:
as §1

The subject of experiment [5] is Salmonella Typhimurium ATCC 13311. Nature of the experiment: Decontamination of inoculated chicken filets, surviving cell count. Format: cell-based. The conditions noted are these: for Salmonella Typhimurium on chicken filets: individual, 12° C. How it is done: Salmonella Typhimurium ATCC 13311 and Escherichia coli O157:H7 ATCC 700728 were grown in sterile screw capped tubes containing Brain heart infusion broth for 18-24 hours at 30° C.
Chicken filets (150-200 g) were trimmed, vacuum packaged and stored at 4-7° C. Filets were subsequently sterilized by gamma-irradiation (average radiation dose: 12 kiloGray).
1 ml of an overnight culture of Salmonella Typhimurium in brain heart infusion both was diluted 1000 times with sterile 0.8% (w/v) NaCl and 0.1% (w/v) peptone. 0.5 ml of this diluted culture was transferred to one side of the filet. The inoculum was distributed by gently rubbing the entire surface of the filet. This was repeated for the other side of the filet. Inoculation was carried out at 6° C. Inoculated filets were rested for 60-120 min at 6° C. to allow attachment of the cells.
Chicken filets were briefly dipped and completely submersed in 1 l of a solution containing the appropriate formulation and then transferred to 400 ml Bagfilter® lateral filter bags (Interscience, St Nom, France) containing 5 ml of the appropriate formulation. Bags were vacuum-sealed and incubated at 12° C. for up to 7 days until further analysis. Time zero samples were plated within 30 min after dipping.
Surviving Salmonella Typhimurium on chicken filets were counted as follows: a sealed bag was opened and to this was added 2 times the net weight sterile dilution fluid ([…] NaCl and 0.1% (w/v) bacteriological peptone). Duplicate filets were homogenized for 1 min. in a Bagmixer® 400 paddle labblender (Interscience, St Nom, France). 50 μl of the homogenates or dilutions thereof were plated on duplicate Salmonella chromogenic agar plates (CM1007) with cefsulodin, novobiocin supplement (SR0194) (Oxoid, Basingstoke, United Kingdom) using an Eddyjet type 1.23 spiral plater (IUL Instruments, Barcelona, Spain). Plates were incubated for 24-48 hours at 30° C. and then counted. Salmonella numbers were expressed as log10 colony forming units per ml homogenate.
The compositions of the formulations that were studied are shown in Table 2. ε-Polylysine and lactylates were dissolved in demineralised water and sterilized for 20 min at 120° C.

Another experiment deals with Enterococcus faecalis. The note with it: EP 1000542; cited from earlier work.
For the next experiment, the system named is Candida albicans. The note with it: EP 1000542; cited from earlier work.
Where [6] appears, read: 0.45% (w/w) in broth, pH 6.1-6.2, 37° C.
Setting [7] is: 0.0225% (w/w) in broth, pH 6.1-6.2, 37° C.

Take `CCCCCCCC(=O)OC(C)C(=O)[O-].[Na+]` (centres unmarked) [C8-lactylate, sodium salt of octanoyllactylate]: the “Observed Relative Growth Rate” value in experiment [1] (setting [6]) was 0.5625; in experiment [2] (setting [6]), 0.657; in experiment [3] (setting [6]) it was 0.58; in experiment [4] (setting [6]) it was 0.4763. Also, the “Salmonella Typhimurium on chicken filets” value in experiment [5] (0.2% (w/v), day 0) is listed as 3.85 log10 colony forming units (CFU)/ml; in experiment [5] (0.2% (w/v), day 1), 4.1 log10 colony forming units (CFU)/ml; in experiment [5] (0.2% (w/v), day 2) it was 4.29 log10 colony forming units (CFU)/ml; in experiment [5] (0.2% (w/v), day 5) it was 6.27 log10 colony forming units (CFU)/ml; in experiment [5] (0.2% (w/v), day 6) it was 7.35 log10 colony forming units (CFU)/ml; in experiment [5] (0.2% (w/v), day 7) it was 7.42 log10 colony forming units (CFU)/ml.

On to `CCCCCCCCCC(=O)OC(C)C(=O)O` (centres unmarked) [C10-lactylate, decanoyllactylate], for which the “Observed Relative Growth Rate” value is given as 0.721 in experiment [1] (0.09% (w/w) in broth), 0.766 in experiment [2] (0.09% (w/w) in broth), 0.912 in experiment [3] (0.09% (w/w) in broth) and 0.904 in experiment [4] (0.09% (w/w) in broth). For the same compound, the “Salmonella Typhimurium on chicken filets” value in experiment [5] (0.05% (w/v), day 0) is listed as 3.75 log10 colony forming units (CFU)/ml; in experiment [5] (0.05% (w/v), day 1), 3.95 log10 colony forming units (CFU)/ml; in experiment [5] (0.05% (w/v), day 2) it was 4.45 log10 colony forming units (CFU)/ml; in experiment [5] (0.05% (w/v), day 5), 6.87 log10 colony forming units (CFU)/ml; in experiment [5] (0.05% (w/v), day 6), 6.83 log10 colony forming units (CFU)/ml; in experiment [5] (0.05% (w/v), day 7) it was 7.52 log10 colony forming units (CFU)/ml.

Regarding `CCCCCCCCCC(=O)OC(C)C(=O)OC(C)C(=O)[O-].[Na+]` (centres unmarked) [sodium salt of capryl-lactyl-lactylate], the antimicrobial activity entry with Enterococcus faecalis and in the experiment with Candida albicans was “some antimicrobial activity” in each case.

Take “poly(imino(2-amino-1-oxo-1,6-hexanediyl)) [ε-polylysine]”: the “Observed Relative Growth Rate” value in experiment [1] (setting [7]) is 0.4935 and 0.7370 and 0.4395 and 0.68; in experiment [3] (setting [7]), 0.9645 and 0.971 and 0.9035; in experiment [4] (setting [7]), 0.943 and 0.9725 and 0.9520. Moreover, the “Salmonella Typhimurium on chicken filets” value in experiment [5] (0.1% (w/v), day 0) is given as 3.04 log10 colony forming units (CFU)/ml; in experiment [5] (0.1% (w/v), day 1), 2.04 log10 colony forming units (CFU)/ml; in experiment [5] (0.1% (w/v), day 2) it was 2.15 log10 colony forming units (CFU)/ml; in experiment [5] (0.1% (w/v), day 5), 4.04 log10 colony forming units (CFU)/ml; in experiment [5] (0.1% (w/v), day 6), 4.26 log10 colony forming units (CFU)/ml; in experiment [5] (0.1% (w/v), day 7), 5.35 log10 colony forming units (CFU)/ml. Further, the reduction in numbers in experiment [5] (single addition, after one day of incubation) was found to be 2 log10.
